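A five-concentration, 48-hour dose response in 96-well plates underlies each endpoint, interpolated linearly between surrounding concentrations. Abbreviation: GI50, concentration required for 50% inhibition of growth.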 The source made the active and inactive calls. Rule as the data show it: active = GI50 up to about 1.1 µM and inactive = higher. A value given as a limit tells only on which side of the number the result lay.

We go through twelve compounds from ChEMBL document CHEMBL1201862, “PubChem BioAssay data set” (2004).

What all share (assay): NCI-60 cell line screen, 48 h
The test system of assay [1] is 786-0.
Assay [2] has as its system COLO 205.
Assay [3] deals with EKVX.
The test system of assay [4] is IGROV-1.
Assay [5] deals with K562.
Assay [6] relates to M14.
Assay [7] concerns OVCAR-8.
The test system of assay [8] is RPMI-8226.
Assay [9] concerns RXF 393.
Assay [10] relates to SF-295.
The subject of assay [11] is SF-539.
The subject of assay [12] is SK-MEL-28.
Assay [13] relates to SNB-75.
Assay [14] concerns SW-620.
The test system of assay [15] is TK-10.
For assay [16], the system named is UACC-62.
Assay [17] relates to SK-OV-3.
In assay [18] the test system is HOP-92.

Take `CCOC(=O)C(C)(C)Oc1ccc2c(=O)cc(-c3ccc(Cl)cc3)oc2c1`: the GI50 in [1], in assay [2], in assay [3], in assay [4], in assay [5] and in [6] was > 100 µM (inactive) throughout. Moreover, the GI50 in assay [7], in assay [8], in [9], in assay [10], in assay [11] and in assay [12] was > 100 µM (inactive) in each case. Moreover, the GI50 was 38.4 µM (inactive) in assay [13], > 100 µM (inactive) in [14], > 100 µM (inactive) in assay [15] and > 100 µM (inactive) in [16].
Turning to `COC(=O)C(Cc1nc2ccccc2nc1O)C(=O)C(=O)Nc1ccc([N+](=O)[O-])cc1[N+](=O)[O-]` (stereo unspecified), the GI50 in [1] was 16.5 µM (inactive); in assay [2] it was 16.4 µM (inactive); in assay [3], 20 µM (inactive); in assay [4] it was 25.6 µM (inactive); in [5], 30.8 µM (inactive); in [6] it was 17.8 µM (inactive). Further, the GI50 in [7] is 22.3 µM (inactive); in assay [8], 23.1 µM (inactive); in assay [9], 18.3 µM (inactive); in [10] it was 24.9 µM (inactive); in [11] it was 20.6 µM (inactive); in [12], 22.6 µM (inactive). The GI50 in [17] was 24.9 µM (inactive); in [13], 16.3 µM (inactive); in [14], 18.7 µM (inactive); in [15] it was 26.4 µM (inactive); in assay [16] it was 18.7 µM (inactive).
With `COc1ccc(OC(C(=O)O)c2ccccc2)c2c1CCCC2=O` (stereo unspecified), the GI50 in assay [1], in assay [2], in assay [3], in assay [18], in assay [4] and in assay [5] was > 100 µM (inactive) in each case. In addition, the GI50 in assay [6], in [7], in assay [8], in assay [10], in assay [11] and in assay [12] was > 100 µM (inactive) in each case. Moreover, the GI50 in [17], in assay [14], in assay [15] and in assay [16] was > 100 µM (inactive) each time.
`c1ccc(C2=NOC3COc4ccccc4OCC23)cc1` (stereo unspecified): the GI50 in assay [1] was > 100 µM (inactive); in [2], > 100 µM (inactive); in [3] it was > 100 µM (inactive); in [5], 72.6 µM (inactive); in assay [6], > 100 µM (inactive); in assay [7], > 100 µM (inactive). Besides, the GI50 in assay [8], in [9], in [10], in [11], in [12] and in [17] was > 100 µM (inactive) each time. The GI50 in assay [13] is 54.6 µM (inactive); in [14], > 100 µM (inactive); in [15], > 100 µM (inactive); in assay [16] it was > 100 µM (inactive).
In the case of `CCc1oc2ccc(OC)c3c2c1C=CC=C3`, the GI50 in [1], in [2], in assay [3], in [4], in assay [5] and in [6] was > 100 µM (inactive) each time. Further, the GI50 in assay [7] is > 100 µM (inactive); in assay [8] it was > 100 µM (inactive); in assay [9], 54.1 µM (inactive); in assay [10], > 100 µM (inactive); in assay [11], > 100 µM (inactive); in assay [12] it was > 100 µM (inactive). The GI50 in [17] was > 100 µM (inactive); in assay [13], 60.3 µM (inactive); in assay [14] it was > 100 µM (inactive); in [15] it was > 100 µM (inactive); in assay [16], > 100 µM (inactive).
`Cc1cccc2c1C/C(=C1\CCc3c(C)cccc31)C2=O`: the GI50 is 90.4 µM (inactive) in assay [1]; > 100 µM (inactive) in assay [2]; > 100 µM (inactive) in assay [3]; > 100 µM (inactive) in assay [4]; > 100 µM (inactive) in [5]; > 100 µM (inactive) in [6]. Besides, the GI50 in assay [7] was > 100 µM (inactive); in assay [9], > 100 µM (inactive); in assay [10] it was > 100 µM (inactive); in assay [12], > 100 µM (inactive); in assay [17] it was > 100 µM (inactive); in assay [13], 80.9 µM (inactive). Besides, the GI50 in [14], in assay [15] and in assay [16] was > 100 µM (inactive) each time.
On to `Cc1ccc(S(=O)(=O)N/N=C\c2c3ccccc3[n+]([O-])c3ccccc23)cc1`, for which the GI50 is 2.01 µM (inactive) in assay [1]; 2.72 µM (inactive) in assay [2]; 20 µM (inactive) in assay [3]; 3.68 µM (inactive) in assay [18]; 9.25 µM (inactive) in [4]; 0.36 µM (active) in assay [5]. For the same compound, the GI50 in assay [6] was 4.57 µM (inactive); in assay [7], 4.03 µM (inactive); in [8] it was 0.415 µM (active); in [10], 6.76 µM (inactive); in assay [12], 3.78 µM (inactive); in assay [17], 14.7 µM (inactive). The GI50 in assay [13] was 3.44 µM (inactive); in assay [14] it was 2.18 µM (inactive); in assay [15] it was 4.9 µM (inactive); in assay [16] it was 5.55 µM (inactive).
Take `CC1=C(c2cc(C(=O)Nc3cccc(C(F)(F)F)c3)ncn2)Sc2ccccc2N1`: the GI50 in assay [1], in assay [2], in assay [3], in [18], in assay [4] and in [5] was > 100 µM (inactive) each time. For the same compound, the GI50 in assay [6], in assay [7], in [8], in [10], in assay [11] and in [12] was > 100 µM (inactive) each time. Also, the GI50 in assay [17] is > 100 µM (inactive); in assay [13] it was 58.9 µM (inactive); in assay [14], > 100 µM (inactive); in assay [15], > 100 µM (inactive); in assay [16] it was > 100 µM (inactive).
On to `O=C(/C=C/c1ccccc1Cl)NC1C=Nc2ccc([N+](=O)[O-])cc2NC1` (stereo unspecified), for which the GI50 in assay [1] is 44.8 µM (inactive); in [2], 39.5 µM (inactive); in [3] it was > 100 µM (inactive); in assay [4] it was 88.7 µM (inactive); in assay [5] it was 46.1 µM (inactive); in [6], > 100 µM (inactive). In addition, the GI50 is 55.8 µM (inactive) in [7]; 30.8 µM (inactive) in assay [8]; 97.7 µM (inactive) in assay [9]; > 100 µM (inactive) in assay [10]; > 100 µM (inactive) in assay [11]; > 100 µM (inactive) in [12]. Besides, the GI50 was > 100 µM (inactive) in assay [17]; 90.8 µM (inactive) in [13]; 4.25 µM (inactive) in assay [14]; > 100 µM (inactive) in [15]; > 100 µM (inactive) in assay [16].
For `Cc1ccc(NC(=O)C(=O)C(C(=O)c2ccc3ccccc3c2)C2OC(=O)c3ccccc32)cc1C` (stereo unspecified), the GI50 in [1] was 10 µM (inactive); in [2], 16.6 µM (inactive); in assay [3] it was 63.5 µM (inactive); in [18], 14 µM (inactive); in assay [4], 18.7 µM (inactive); in assay [5], 13.8 µM (inactive). Moreover, the GI50 in [6] was 15.6 µM (inactive); in assay [7] it was 12.8 µM (inactive); in assay [8], 4.7 µM (inactive); in assay [11] it was 3.02 µM (inactive); in [12], 10.3 µM (inactive); in [17], 26.9 µM (inactive). Moreover, the GI50 in assay [13] is 2.98 µM (inactive); in [14] it was 14.7 µM (inactive); in [15], 34.8 µM (inactive); in assay [16], 12.4 µM (inactive).
Regarding `CC(=O)[O-].Cc1ncc(CO)c(/C=N/NC(N)=S)c1[O-].[Zn+2]`, the GI50 in [1], in assay [2], in [3], in assay [4], in assay [5] and in [6] was > 100 µM (inactive) throughout. The GI50 in assay [7], in assay [8], in assay [9], in assay [10], in assay [11] and in assay [12] was > 100 µM (inactive) throughout. Moreover, the GI50 in [17], in [13], in assay [14], in [15] and in assay [16] was > 100 µM (inactive) throughout.
In the case of `COc1ccc(OC)c2[nH]c(Sc3c([N+](=O)[O-])ncn3C)nc12`, the GI50 is 29.3 µM (inactive) in assay [1]; 11.6 µM (inactive) in assay [2]; 23.1 µM (inactive) in assay [3]; 16.9 µM (inactive) in assay [18]; 24.2 µM (inactive) in [4]; 20.3 µM (inactive) in assay [6]. Also, the GI50 in assay [7] is 17.6 µM (inactive); in [9] it was 25.2 µM (inactive); in assay [10], 41.8 µM (inactive); in [11], 18 µM (inactive); in [12] it was 24.3 µM (inactive); in [17], 35.2 µM (inactive). Also, the GI50 was 30.8 µM (inactive) in [13], 24.5 µM (inactive) in assay [14], 23.6 µM (inactive) in assay [15] and 18.5 µM (inactive) in [16].
